Reference: US20120230951A1 (priority 2011, published 2012)

Each molecule was assayed on GT-1a pRLuc H771b 75 S/I subgenomic replicon cell line (assay: HCV GT-1a replicon luciferase reporter assay). Details: Hepatitis C virus, GT1A, 72 h, read-out: GT-1a (IC50) (nM).
Assay type: cell-based
Description: Determination of compounds HCV GT1b inhibitory replicon activity using the replicon luciferase reporter assay
The 2209-23 cell line was developed at Roche by stable transfection of the hepatoma cell line Huh-7 with a GT-1b Con1 subgenomic bicistronic replicon as previously described. Subgenomic replicon cell line was established in cured Huh7 cells, obtained from R. Bartenschlager (J. Virol. 2003 March; 77 (5):3007-19) The GT-1a H77 subgenomic replicon vector pRLuc H771b 75 S/I, was created by replacing the non structural region of the GT-1b Con1 subgenomic replicon by the one of the H77 strain, except for the first 75 amino acids of the NS3 protein that are from GT-1b Con1 strain. (J. Virol. 2001 77:5352-59) The GT-1a pRLuc H771b 75 S/I subgenomic replicon cell line was established in cured Huh7 cells, obtained from R. Bartenschlager. (J. Virol. 2003 March; 77 (5):3007-19)
All the subgenomic replicon cell lines were cultured in Dulbecco's Modified Eagle Medium (DMEM-Glutamax™-I; Invitrogen Cat #10569-010). The medium was supplemented with 10% Fetal Bovine Serum (Invitrogen Cat #10082-147), 1% penicillin/streptomycin (Mediatech Cat #30-002-CI) and 500 μg/ml of G418 (Mediatech Cat #30-234-CI). Cells were maintained at 37° C. in a humidified 5% CO2 atmosphere.
2209-23 cells were plated at a cell density of 5000 cells per well in 96 well plates (Becton Dickinson, Cat #35 3296). Cells were plated in 90 μl of Dulbecco's Modified Eagle Medium (DMEM-Glutamax™-I), (Invitrogen Cat #10569-010) medium was supplemented with 5% Fetal Bovine Serum (Invitrogen Cat #10082-147), 1% penicillin/streptomycin (Mediatech Cat #30-002-CI). The pRluc H771b 75 S/I cells were plated in 96-well plate at 3000 cells/well in DMEM-Glutamax™-I containing 5% FBS and 1% penicillin/streptomycin in 90 μl final volume. Cells were allowed to equilibrate for 24 hours at 37° C. and 5% CO2 at which time compounds were added. Compounds (or medium as a control) were added 24 hours post-plating in 3 fold dilutions at a final DMSO concentration of 1% in 10 ul volume. Renilla luciferase reporter signal was read 72 hours after addition of compounds using the Renilla Luciferase Assay System (Promega, cat #E2820). EC50 values were defined as the compound concentration at which a 50% reduction in the levels of renilla luciferase reporter was observed as compared to control samples in the absence of compound and was determined by non-linear fitting of compound dose-response data. The EC50 was approximated if maximum percentage inhibition was less than 90% and more than 70%.

SMILES | IC50
COC(=O)N[C@H]1CCc2cccc3c2N(C1=O)[C@H](c1ncc(-c2ccc(-c4ccc(-c5cnc([C@@H]6CCCN6C(=O)[C@@H](NC(=O)OC)C(C)C)[nH]5)cc4)cc2F)[nH]1)C3 [Compound I-36, {(2S,5S)-2-[5-(3-Fluoro-4′-{2-[(S)-1-((S)-2-methoxycarbonylamino-3-methyl-butyryl)-pyrrolidin-2-yl]-1H-imidazol-4-yl}-biphenyl-4-yl)-1H-imidazol-2-yl]-4-oxo-1,2,4,5,6,7-hexahydro-azepino[3,2,1-hi]indol-5-yl}-carbamic acid methyl ester] | 13.8 nM
COC(=O)N[C@H]1CCc2cccc3c2N(C1=O)[C@H](c1ncc(-c2ccc(-c4ccc(-c5cnc([C@@H]6CCCN6C(=O)[C@@H](NC(=O)OC)C(C)C)[nH]5)cc4F)cc2)[nH]1)C3 [Compound I-37, {(2S,5S)-2-[5-(2′-Fluoro-4′-{2-[(S)-1-((S)-2-methoxycarbonylamino-3-methyl-butyryl)-pyrrolidin-2-yl]-1H-imidazol-4-yl}-biphenyl-4-yl)-1H-imidazol-2-yl]-4-oxo-1,2,4,5,6,7-hexahydro-azepino[3,2,1-hi]indol-5-yl}-carbamic acid methyl ester] | 5.22 nM
COC(=O)N[C@H]1CCc2cccc3c2N(C1=O)[C@H](c1ncc(-c2ccc(-c4ccc(-c5cnc([C@@H]6CCCN6C(=O)[C@@H](NC(=O)OC)C(C)C)[nH]5)cc4C#N)cc2)[nH]1)C3 [Compound I-38, {(2S,5S)-2-[5-(2′-Cyano-4′-{2-[(S)-1-((S)-2-methoxycarbonylamino-3-methyl-butyryl)-pyrrolidin-2-yl]-1H-imidazol-4-yl}-biphenyl-4-yl)-1H-imidazol-2-yl]-4-oxo-1,2,4,5,6,7-hexahydro-azepino[3,2,1-hi]indol-5-yl}-carbamic acid methyl ester] | 22.4 nM
COC(=O)N[C@H]1CCc2cccc3c2N(C1=O)[C@H](c1ncc(-c2ccc(-c4ccc(-c5cnc([C@@H]6C[C@@H](C#N)CN6C(=O)[C@@H](NC(=O)OC)C(C)C)[nH]5)cc4)cc2)[nH]1)C3 [Compound I-39, {(2S,5S)-2-[5-(4′-{2-[(2S,4R)-4-Cyano-1-((S)-2-methoxycarbonylamino-3-methyl-butyryl)-pyrrolidin-2-yl]-3H-imidazol-4-yl}-biphenyl-4-yl)-1H-imidazol-2-yl]-4-oxo-1,2,4,5,6,7-hexahydro-azepino[3,2,1-hi]indol-5-yl}-carbamic acid methyl ester] | 5.34 nM
COC(=O)N[C@H]1CCc2cccc3c2N(C1=O)[C@H](c1ncc(-c2ccc(-c4ccc(-c5cnc([C@@H]6C[C@H](C#N)CN6C(=O)[C@@H](NC(=O)OC)C(C)C)[nH]5)cc4)cc2)[nH]1)C3 [Compound I-40, {(2S,5S)-2-[5-(4′-{2-[(2S,4S)-4-Cyano-1-((S)-2-methoxycarbonylamino-3-methyl-butyryl)-pyrrolidin-2-yl]-3H-imidazol-4-yl}-biphenyl-4-yl)-1H-imidazol-2-yl]-4-oxo-1,2,4,5,6,7-hexahydro-azepino[3,2,1-hi]indol-5-yl}-carbamic acid methyl ester] | 7.85 nM
COC(=O)N[C@H]1CCc2cccc3c2N(C1=O)[C@H](c1ncc(-c2ccc(-c4ccc5cc(-c6cnc([C@@H]7C[C@H](C#N)CN7C(=O)[C@@H](NC(=O)OC)C(C)C)[nH]6)ccc5c4)cc2)[nH]1)C3 [Compound I-41, {(2S,5S)-2-{5-[4-(6-{2-[(2S,4S)-4-Cyano-1-((S)-2-methoxycarbonylamino-3-methyl-butyryl)-pyrrolidin-2-yl]-3H-imidazol-4-yl}-naphthalen-2-yl)-phenyl]-1H-imidazol-2-yl]-4-oxo-1,2,4,5,6,7-hexahydro-azepino[3,2,1-hi]indol-5-yl}-carbamic acid methyl ester] | 2.49 nM
COC(=O)N[C@H]1CCc2cccc3c2N(C1=O)[C@H](c1ncc(-c2ccc(-c4ccc5cc(-c6cnc([C@@H]7CC(F)(F)CN7C(=O)[C@@H](NC(=O)OC)C(C)C)[nH]6)ccc5c4)cc2)[nH]1)C3 [Compound I-42, {(2S,5S)-2-{5-[4-(6-{2-[(S)-4,4-Difluoro-1-((S)-2-methoxycarbonylamino-3-methyl-butyryl)-pyrrolidin-2-yl]-3H-imidazol-4-yl}-naphthalen-2-yl)-phenyl]-1H-imidazol-2-yl}-4-oxo-1,2,4,5,6,7-hexahydo-azepino[3,2,1-hi]indol-5-yl}-carbamic acid methyl ester] | 1.17 nM
COC[C@H](NC(=O)OC)C(=O)N1CCC[C@H]1c1ncc(-c2ccc(-c3ccc(-c4cnc([C@@H]5Cc6cccc7c6N5C(=O)[C@@H](NC(=O)OC)CC7)[nH]4)cc3)cc2)[nH]1 [Compound I-43] | 5.64 nM
COC(=O)N[C@H]1CCc2cccc3c2N(C1=O)[C@H](c1ncc(-c2ccc(-c4ccc(-c5cnc([C@@H]6CCCN6C(=O)[C@@H](NC(=O)OC)C6CC6)[nH]5)cc4)cc2)[nH]1)C3 [Compound I-44] | 11.4 nM
CC[C@H](NC(=O)OC)C(=O)N1CCC[C@H]1c1ncc(-c2ccc(-c3ccc(-c4cnc([C@@H]5Cc6cccc7c6N5C(=O)[C@@H](NC(=O)OC)CC7)[nH]4)cc3)cc2)[nH]1 [Compound I-45] | 17.1 nM
COCC[C@H](NC(=O)OC)C(=O)N1CCC[C@H]1c1ncc(-c2ccc(-c3ccc(-c4cnc([C@@H]5Cc6cccc7c6N5C(=O)[C@@H](NC(=O)OC)CC7)[nH]4)cc3)cc2)[nH]1 [Compound I-46] | 2.96 nM
COC(=O)N[C@H]1CCc2cccc3c2N(C1=O)[C@H](c1ncc(-c2ccc(-c4ccc(-c5cnc([C@@H]6CCCN6C(=O)C6(NC(=O)OC)COC6)[nH]5)cc4)cc2)[nH]1)C3 [Compound I-47] | 110 nM
COC(=O)NC(C(=O)N1CCC[C@H]1c1ncc(-c2ccc(-c3ccc(-c4cnc([C@@H]5Cc6cccc7c6N5C(=O)[C@@H](NC(=O)OC)CC7)[nH]4)cc3)cc2)[nH]1)C1CCOCC1 (some centres unmarked) [Compound I-48] | 2.83 nM
COC(=O)N[C@@H](C)C(=O)N1CCC[C@H]1c1ncc(-c2ccc(-c3ccc(-c4cnc([C@@H]5Cc6cccc7c6N5C(=O)[C@@H](NC(=O)OC)CC7)[nH]4)cc3)cc2)[nH]1 [Compound I-49, {(2S,5S)-2-[5-(4-{2-[(S)-1-((S)-2-Methoxycarbonylamino-propionyl)-pyrolidin-2-yl]-3H-imidazol-4-yl}-biphenyl-4-yl)-1H-imidazol-2-yl]-4-oxo-1,2,4,5,6,7-hexahydro-azepino[3,2,1-hi]indol-5-yl}-carbamic acid methyl ester] | 3.91 nM
CC[C@H](C)[C@H](NC(=O)OC)C(=O)N1CCC[C@H]1c1ncc(-c2ccc3nc(-c4ccc(-c5cnc([C@@H]6Cc7cccc8c7N6C(=O)[C@@H](NC(=O)OC)CC8)[nH]5)cc4)cnc3c2)[nH]1 [Compound I-53, ((2S,5S)-2-{5-[4-(6-{2-[(S)-1-((2S,3S)-2-Methoxycarbonylamino-3-methyl-pentanoyl)-pyrrolidin-2-yl]-3H-imidazol-4-yl}-quinoxalin-2-yl)-phenyl]-1H-imidazol-2-yl}-4-oxo-1,2,4,5,6,7-hexahydroazepino[3,2,1-hi]indol-5yl)-carbamic acid methyl ester] | 1.36 nM
COC(=O)N[C@H]1CCc2cccc3c2N(C1=O)[C@H](c1ncc(-c2ccc(-c4cnc5cc(-c6cnc([C@@H]7CCCN7C(=O)[C@@H](NC(=O)OC)C(C)(C)C)[nH]6)ccc5n4)cc2)[nH]1)C3 [Compound I-54, ((2S,5S)-2-{5-[4-(6-{2-[(S)-1-((S)-2-Methoxycarbonylamino-3,3-dimethyl-butyryl)-pyrrolidin-2-yl]-3H-imidazol-4-yl}-quinoxalin-2-yl)-phenyl]-1H-imidazol-2-yl}-4-oxo-1,2,4,5,6,7-hexahydro-azepino[3,2,1-hi]indol-5-yl)-carbamic acid methyl ester] | 0.949 nM
CC[C@H](C)[C@H](NC(=O)OC)C(=O)N1CCC[C@H]1c1ncc(-c2ccc(-c3cnc4cc(-c5cnc([C@@H]6Cc7cccc8c7N6C(=O)[C@@H](NC(=O)OC)CC8)[nH]5)ccc4n3)cc2)[nH]1 [Compound I-56, ((2S,5S)-2-{5-[2-(4-{2-[(S)-1-((2S,3S)-2-Methoxycarbonylamino-3 methyl-pentanoyl)-pyrrolidin-2-yl]-3H-imidazol-4-yl}-phenyl)quinoxalin-6-yl]-1H-imidazol-2-yl}-4-oxo-1,2,4,5,6,7-hexahydro-azepino[3,2,1-hi]indol-5-yl)-carbamic acid methyl ester] | 3 nM
